In ChEMBL document CHEMBL5465560, “Selectivity Literature for EUbOPEN Chemogenomic Library” (2024):

Assays:
[1] = target: T1, Hormonally up-regulated neu tumor-associated kinase (Homo sapiens) (UniProt P57058); experiment: Selectivity interaction (KinomeScan (DiscoverX)) EUB0001049a HUNK; settings: at 1 µM
T1 sequence (whole entry): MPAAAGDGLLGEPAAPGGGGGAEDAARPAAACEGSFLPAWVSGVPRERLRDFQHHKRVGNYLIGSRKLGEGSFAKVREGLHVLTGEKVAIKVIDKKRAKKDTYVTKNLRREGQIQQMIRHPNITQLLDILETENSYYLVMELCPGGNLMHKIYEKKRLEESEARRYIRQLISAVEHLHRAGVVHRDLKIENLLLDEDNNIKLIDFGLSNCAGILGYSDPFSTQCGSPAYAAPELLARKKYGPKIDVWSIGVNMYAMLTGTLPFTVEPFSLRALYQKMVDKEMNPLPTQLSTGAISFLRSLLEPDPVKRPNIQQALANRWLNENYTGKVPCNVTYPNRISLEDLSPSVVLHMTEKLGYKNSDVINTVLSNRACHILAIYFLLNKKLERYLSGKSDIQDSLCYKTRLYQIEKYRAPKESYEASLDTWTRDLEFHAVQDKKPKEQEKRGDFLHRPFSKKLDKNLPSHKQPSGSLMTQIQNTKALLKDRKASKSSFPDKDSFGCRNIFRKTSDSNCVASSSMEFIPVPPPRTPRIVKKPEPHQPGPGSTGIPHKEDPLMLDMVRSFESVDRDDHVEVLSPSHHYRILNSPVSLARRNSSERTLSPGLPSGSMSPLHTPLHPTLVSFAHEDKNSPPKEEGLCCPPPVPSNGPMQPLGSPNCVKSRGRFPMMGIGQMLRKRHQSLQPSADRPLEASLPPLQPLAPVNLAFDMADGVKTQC

[2] = target: T2, Serine/threonine-protein kinase TNNI3K (Homo sapiens) (UniProt Q59H18); settings: at 10 µM
T2 sequence (whole entry): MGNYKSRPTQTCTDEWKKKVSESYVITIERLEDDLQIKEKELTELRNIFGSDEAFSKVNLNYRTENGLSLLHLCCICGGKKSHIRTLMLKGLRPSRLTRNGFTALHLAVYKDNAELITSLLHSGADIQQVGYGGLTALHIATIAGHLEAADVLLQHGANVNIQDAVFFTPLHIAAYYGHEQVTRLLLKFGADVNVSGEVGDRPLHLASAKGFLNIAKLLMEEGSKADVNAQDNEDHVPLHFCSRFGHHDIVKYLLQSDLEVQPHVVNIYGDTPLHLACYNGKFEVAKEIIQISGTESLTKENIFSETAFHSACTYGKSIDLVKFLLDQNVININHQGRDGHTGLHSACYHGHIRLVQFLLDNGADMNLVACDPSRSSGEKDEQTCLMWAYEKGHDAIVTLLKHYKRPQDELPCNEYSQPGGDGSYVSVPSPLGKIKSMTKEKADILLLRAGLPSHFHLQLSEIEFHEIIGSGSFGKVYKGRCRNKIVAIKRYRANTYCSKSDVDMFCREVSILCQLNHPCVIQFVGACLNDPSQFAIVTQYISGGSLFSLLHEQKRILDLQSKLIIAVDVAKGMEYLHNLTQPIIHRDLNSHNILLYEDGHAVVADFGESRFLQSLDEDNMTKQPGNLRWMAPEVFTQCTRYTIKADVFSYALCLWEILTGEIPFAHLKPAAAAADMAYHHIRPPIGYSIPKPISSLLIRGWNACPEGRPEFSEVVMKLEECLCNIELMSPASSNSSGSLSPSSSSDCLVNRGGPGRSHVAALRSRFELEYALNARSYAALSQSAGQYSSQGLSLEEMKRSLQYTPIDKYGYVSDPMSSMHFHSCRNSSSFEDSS

[3] = target: T3, Mitogen-activated protein kinase kinase kinase 3 (Homo sapiens) (UniProt Q99759); experiment: Selectivity interaction (KinomeScan (DiscoverX)) EUB0000595a MAP3K3; settings: at 10 µM
T3 sequence (whole entry): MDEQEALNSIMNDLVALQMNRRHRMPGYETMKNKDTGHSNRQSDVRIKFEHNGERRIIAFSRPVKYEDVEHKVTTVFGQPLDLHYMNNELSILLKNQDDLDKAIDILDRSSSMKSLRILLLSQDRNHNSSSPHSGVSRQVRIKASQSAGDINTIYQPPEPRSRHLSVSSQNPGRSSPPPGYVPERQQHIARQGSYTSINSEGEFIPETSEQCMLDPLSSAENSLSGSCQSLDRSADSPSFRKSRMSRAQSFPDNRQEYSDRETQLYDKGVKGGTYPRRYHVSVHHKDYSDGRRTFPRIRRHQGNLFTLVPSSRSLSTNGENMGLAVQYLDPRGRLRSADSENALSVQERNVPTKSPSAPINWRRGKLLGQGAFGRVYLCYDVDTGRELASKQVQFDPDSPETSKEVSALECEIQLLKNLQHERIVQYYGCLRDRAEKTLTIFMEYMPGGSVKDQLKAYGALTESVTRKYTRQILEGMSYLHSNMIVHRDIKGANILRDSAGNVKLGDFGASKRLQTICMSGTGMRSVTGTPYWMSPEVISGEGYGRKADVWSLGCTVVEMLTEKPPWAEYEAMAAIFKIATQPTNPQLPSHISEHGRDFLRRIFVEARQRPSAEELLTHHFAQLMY

[4] = target: Dual specificity tyrosine-phosphorylation-regulated kinase 1A (Homo sapiens, UniProt Q13627); experiment: Selectivity interaction (KinomeScan (DiscoverX)) EUB0000092b DYRK1A; settings: at 10 µM
[5] = target: Serine/threonine-protein kinase 32A (Homo sapiens) (UniProt Q8WU08); settings: at 10 µM
[6] = target: Serine/threonine-protein kinase SIK1 (Homo sapiens) (UniProt P57059); experiment: Selectivity interaction (KinomeScan (DiscoverX)) EUB0000695a SIK1; settings: at 100 nM
[7] = target: T4, Alpha-1B adrenergic receptor (Homo sapiens) (UniProt P35368); experiment: Selectivity interaction (Panel of kinases, GPCRs, ion channels and transporters (enzymatic assay)) EUB0000266bCl ADRA1B
T4 sequence (whole entry): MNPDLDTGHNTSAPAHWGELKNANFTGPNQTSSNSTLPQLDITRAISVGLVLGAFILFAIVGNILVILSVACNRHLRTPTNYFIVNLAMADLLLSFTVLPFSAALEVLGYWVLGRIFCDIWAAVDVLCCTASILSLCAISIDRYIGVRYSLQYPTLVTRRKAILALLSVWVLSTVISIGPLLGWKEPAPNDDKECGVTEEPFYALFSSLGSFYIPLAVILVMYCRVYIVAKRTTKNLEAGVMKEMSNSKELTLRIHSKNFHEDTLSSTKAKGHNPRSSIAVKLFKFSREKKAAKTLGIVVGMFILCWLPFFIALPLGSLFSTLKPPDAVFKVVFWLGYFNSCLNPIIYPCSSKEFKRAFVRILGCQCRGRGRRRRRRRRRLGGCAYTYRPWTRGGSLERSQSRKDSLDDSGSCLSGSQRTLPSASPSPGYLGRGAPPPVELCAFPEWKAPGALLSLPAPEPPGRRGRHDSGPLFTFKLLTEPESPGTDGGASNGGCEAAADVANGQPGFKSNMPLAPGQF

Chain of Serine/threonine-protein kinase SIK1 (Homo sapiens) (P57059 whole entry): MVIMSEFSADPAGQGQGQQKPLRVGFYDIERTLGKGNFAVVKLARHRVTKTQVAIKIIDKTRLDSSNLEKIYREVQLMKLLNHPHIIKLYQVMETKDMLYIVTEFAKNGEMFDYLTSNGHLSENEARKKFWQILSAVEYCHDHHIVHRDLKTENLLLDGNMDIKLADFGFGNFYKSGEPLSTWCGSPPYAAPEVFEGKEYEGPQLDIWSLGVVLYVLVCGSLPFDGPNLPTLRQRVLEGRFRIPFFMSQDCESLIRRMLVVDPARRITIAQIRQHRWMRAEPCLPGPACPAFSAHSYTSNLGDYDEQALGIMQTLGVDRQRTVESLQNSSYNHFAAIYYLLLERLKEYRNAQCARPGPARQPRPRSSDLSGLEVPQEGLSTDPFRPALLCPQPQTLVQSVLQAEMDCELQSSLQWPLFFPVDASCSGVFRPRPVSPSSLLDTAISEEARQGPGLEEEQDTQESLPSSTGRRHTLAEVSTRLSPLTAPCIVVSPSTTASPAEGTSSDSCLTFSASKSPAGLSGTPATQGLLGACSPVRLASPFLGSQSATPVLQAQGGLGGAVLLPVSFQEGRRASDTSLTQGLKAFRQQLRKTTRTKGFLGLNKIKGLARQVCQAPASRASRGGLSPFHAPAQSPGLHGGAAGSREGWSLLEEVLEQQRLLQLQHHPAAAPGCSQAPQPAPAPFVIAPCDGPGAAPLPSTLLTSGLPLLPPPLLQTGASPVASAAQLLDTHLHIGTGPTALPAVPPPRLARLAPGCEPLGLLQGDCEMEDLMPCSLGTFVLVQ
Chain of Serine/threonine-protein kinase 32A (Homo sapiens) (Q8WU08 whole entry): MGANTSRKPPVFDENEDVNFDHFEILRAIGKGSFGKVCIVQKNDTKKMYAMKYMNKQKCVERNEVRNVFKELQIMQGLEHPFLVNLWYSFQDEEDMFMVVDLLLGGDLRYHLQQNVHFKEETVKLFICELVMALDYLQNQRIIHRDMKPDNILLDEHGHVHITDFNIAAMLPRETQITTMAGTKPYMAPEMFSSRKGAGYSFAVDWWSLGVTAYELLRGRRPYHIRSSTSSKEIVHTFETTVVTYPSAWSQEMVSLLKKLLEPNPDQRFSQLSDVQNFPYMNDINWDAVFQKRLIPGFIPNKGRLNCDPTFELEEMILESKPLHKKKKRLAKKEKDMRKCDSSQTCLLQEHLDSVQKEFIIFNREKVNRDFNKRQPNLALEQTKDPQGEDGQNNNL

COc1cc(Nc2nc(C)cc(-c3cnn4nc(OC)ccc34)n2)cc(C(F)(F)F)c1
% of control [1]: 99%

CCN(CC)CCCCNc1ncc2cc(-c3cc(OC)cc(OC)c3)c(NC(=O)NC(C)(C)C)nc2n1
% of control [2]: 100%

COCC(=O)NC/C=C/c1ccc2ncnc(Nc3ccc(Oc4ccc(C)nc4)c(C)c3)c2c1 [CP-724714]
% of control [3]: 100%

CCC(=O)N1CCN(c2ccc(-n3c(=O)ccc4cnc5ccc(-c6cnc7ccccc7c6)cc5c43)cc2C(F)(F)F)CC1
% of control [4]: 71%

Cc1cc([C@@H](C)Nc2ccccc2C(=O)O)c2nc(N3CCOCC3)cc(=O)n2c1 [AZD-6482]
% of control [5]: 89%

Cc1cc(F)c(C(=O)Nc2cccc(-c3nncn3C(C)C)n2)cc1-n1cnc(C2CC2)c1
% of control [6]: 94%

CCn1c(-c2nc3cc(C(=O)N4CCCC(N)C4)ccc3n2C)cc2ccccc21 (configuration not stated)
pXC50 [7]: 5.4 M
